# Measurements from patent US7462362B2, “Antifungal nail coat and method of use” (NexMed Holdings, Inc., priority 2003, dated 2008).
# Where a name gives a salt, the structure may show the parent alone.
# How the values were obtained:
# [1] = test system: T. mentagrophytes, (ATCC 24953); test: Modified NCCLS M38-A broth microdilution MIC assay; type: cell-based, Trichophyton mentagrophytes
# Description: The broth microdilution method was a modification of a NCCLS M38-A standard method for the susceptibility testing of conidium-forming filamentous fungi of the National Committee for Clinical Laboratory Standards (NCCLS). The modified method was developed at the Center for Medical Mycology, University Hospitals of Cleveland, Cleveland, Ohio, based on the method described in Jessup, et al., “Antifungal Susceptibility Testing of Dermatophytes: Establishing a Medium for Inducing Conidial Growth and Evaluation of Susceptibility of Clinical Isolates,” Journal of Clinical Microbiology, 38, 341-344, published by the American Society for Microbiology (2000), the disclosures of which are incorporated herein by reference. Based on a multicenter study of the reproducibility of the modified method for testing dermatophytes, adoption of the modified method as an amendment to the NCCLS M38-A standard has been proposed. […]
# Dermatophyte isolates are subcultured onto Potato Dextrose Agar (PDA) and incubated at a temperature of about 30° C. for a period of about 4 to about 5 days or until good conidiation is produced. […] The suspension is allowed to settle for about 5 to about 10 minutes and the conidia is counted using a hemocytometer. […]
# MIC assay was determined using the broth dilution procedure described in Example 8 performed in microtiter wells with RPMI 1604 as the diluent. […]
# [2] = test system: T. mentagrophytes, (ATCC 24953); test: Agar diffusion plate assay, zone of inhibition (Example 9); type: cell-based, Trichophyton mentagrophytes; conditions: undiluted composition
# Description: For the agar diffusion assay, the standardized inoculum of conidia is applied to the surface of a Potato Dextrose Agar plate and allowed to dry. Wells are then cut into the agar and the test composition is put into the wells and allowed to diffuse and antifungal activity is evidenced by zones of growth inhibition (i.e., area remaining clear, lacking growth) on the surface of the plates measured in millimeters (mm) diameter.
# The fungicidal activity of terbinafine hydrochloride against the dermatophytic fungi, T. mentagrophytes, (ATCC 24953), is illustrated in the modified NCCLS broth dilution assay described in Example 8, based on minimum inhibitory concentration (MIC) and minimum fungicidal concentration (MFC) as well as an agar diffusion plate assay measuring the zones of inhibition.
# MIC assay was determined using the broth dilution procedure described in Example 8 performed in microtiter wells with RPMI 1604 as the diluent. Serial dilutions of each test composition were made in RPMI diluent, and then 100 μl of undiluted test composition and of each diluted composition was added to a respective microtiter well. Conidial suspension (100 μl) was then added to each well and the plates were incubated at an incubation temperature of about 35° C. for an incubation period of 4 days dermatophytes, and 48 hours for yeasts. […], undiluted test composition was added to wells cut into the agar and allowed to diffuse. The MIC endpoint was the lowest concentration that inhibited 80% of fungal growth as compared to the growth control. The MFC endpoint was the lowest concentration to produce 1-2 colonies. The zone of inhibition size was measured (diameter of area remaining clear, i.e., lacking growth).
# [3] = test system: T. mentagrophytes, (ATCC 24953); test: MFC assay by subculturing the microtiter wells from the MIC test; type: cell-based, Trichophyton mentagrophytes
# Protocol: Dermatophyte isolates are subcultured onto Potato Dextrose Agar (PDA) and incubated at a temperature of about 30° C. for a period of about 4 to about 5 days or until good conidiation is produced. T rubrum isolates are subcultured onto cereal (oatmeal) agar instead of PDA in order to induce conidia production. A suspension of conidia in sterile saline is made by gently swabbing the colony surface with a sterile swab. The suspension is allowed to settle for about 5 to about 10 minutes and the conidia is counted using a hemocytometer. Working suspensions of conidia are prepared in 10 ml RPMI 1604 (Difco Laboratories) medium to a final concentration of 1 to 3×10^3 CFU/ml. Yeast controls are subcultured onto PDA and incubated at a temperature of about 35° C. for about 48 hours. Yeast inocula are prepared to a final concentration of 0.5 to 2.5×10^3 CFU/ml. For MIC assay, each drug concentration well and growth control well is inoculated with 100 microliters of cell suspension, and the final volume in each microtiter well is 200 microliters. The dermatophyte plates are incubated at a temperature of about 35° C. for 4 days (yeast controls for 48 hours). […]
# MIC assay was determined using the broth dilution procedure described in Example 8 performed in microtiter wells with RPMI 1604 as the diluent. […] The zone of inhibition size was measured (diameter of area remaining clear, i.e., lacking growth).
# [4] = Release/retention of terbinafine hydrochloride from treated human nail clippings in ethyl alcohol; type: in vitro ADME; conditions: FIG. 2
# Protocol: The terbinafine-treated nail clippings were then separately recovered from each test solution and rinsed with 10 mL of ethyl alcohol to remove antifungal liquid from the surface cavity. The rinsed nail clippings from each test were then separately immersed in another 5 mL portion of anhydrous ethyl alcohol to assess the rate of terbinafine release from the nail structure, by determining the concentration of terbinafine hydrochloride released as a function of time using the HPLC technique described above.
# [5] = In vitro diffusion of terbinafine across a nail membrane (human nail clippings); type: in vitro ADME; conditions: applied as a 10% solution in ethanol
compound,measurement,setting,value
"CCCCCCCCCCCCOC(=O)C(C)N(C)C.Cl (stereo not drawn) [9(E), dodecyl-2-(N,N-dimethylamino) isopropionate hydrochloride]",efficacy as judged from MIC assays,[1]; in words,at most some weak efficacy
same,Zone size (mm),[2],Zero
"CN(C/C=C/C#CC(C)(C)C)Cc1cccc2ccccc12 [9(F), terbinafine hydrochloride]",Zone size (mm),[2]; hydrochloride,80 mm
"CN(C/C=C/C#CC(C)(C)C)Cc1cccc2ccccc12 [9(G), terbinafine hydrochloride]",MIC,"[1]; Trichophyton mentagrophytes, ATCC24953, 96 h, 80% growth inhibition, 35° C., 4 days",0.03 µg/mL
same,MFC,"[3]; Trichophyton mentagrophytes, ATCC24953, lowest concentration to produce 1-2 colonies",0.125 µg/mL
same,fungicidal efficacy as judged from MFC assays,[3]; in words,substantially equivalent
same,Zone size (mm),[2]; hydrochloride,18 mm
CN(C/C=C/C#CC(C)(C)C)Cc1cccc2ccccc12 [terbinafine hydrochloride],period for amount of terbinafine hydrochloride retained in the nail to reach equilibrium,[4],about 10 hours
"CN(C/C=C/C#CC(C)(C)C)Cc1cccc2ccccc12 [terbinafine, (E)-N-(6,6-dimethyl-2-hepten-4-ynyl)-N-methyl-1-naphthalene methanamine]",period to reach a concentration above the minimum inhibition concentration (MIC) for fungi across nail membrane,[5],about one
